# In BindingDB's records for doi:10.1016/j.bmcl.2007.05.021 (Yale University, 2007):
# Target: Transcription factor Jun (Homo sapiens, UniProt P05412)
# Assay: Inhibition of AP1-mediated gene transcription in HepG2 cells by luciferase reporter gene assay
# Transcription factor Jun, sequence (P05412 whole entry): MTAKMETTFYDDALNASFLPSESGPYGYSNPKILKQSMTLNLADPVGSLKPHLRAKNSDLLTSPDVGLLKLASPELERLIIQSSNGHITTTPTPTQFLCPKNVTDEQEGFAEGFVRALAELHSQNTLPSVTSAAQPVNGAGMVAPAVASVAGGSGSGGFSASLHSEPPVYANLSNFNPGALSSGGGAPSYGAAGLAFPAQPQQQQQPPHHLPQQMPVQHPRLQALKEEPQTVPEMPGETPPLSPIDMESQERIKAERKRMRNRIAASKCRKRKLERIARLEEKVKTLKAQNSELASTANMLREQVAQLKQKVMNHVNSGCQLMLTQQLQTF
row,Structure (SMILES),IC50 [nM]
1,"COc1cc2c3c(c4cc(OC)c(OC)cc4c2cc1OC)[C@@H](O)[C@@H]1CCCN1C3 [(12aS,13R)-2,3,6,7-tetramethoxy-9,10,11,12,12a,13-hexahydro-9a-aza-cyclopenta[b]triphenylen-13-ol]",> 300
2,"COc1cc2c3c(c4cc(OC)c(OC)cc4c2cc1O)CN1CCC[C@H]1[C@H]3O [(12aS,13S)-2,6,7-trimethoxy-9,10,11,12,12a,13-hexahydro-9a-aza-cyclopenta[b]triphenylene-3,13-diol]",> 1000
3,"COc1cc2c(cc1OC)-c1cc(OC)c(OC)cc1C1CN3CCC[C@H]3C=C21 (stereo partly drawn) [(S)-2,3,6,7-tetramethoxy-8b,9,10,11,12,12a-hexahydro-9a-aza-cyclopenta[b]triphenylene]",> 300
4,COc1ccc2c3c(c4cc(OC)c(O)cc4c2c1)CN1CCC[C@@H]1C3 [[(R)-(+)-deoxytylophorinidine],68
5,COc1ccc2c3c(c4cc(OC)c(O)cc4c2c1)C[N+]1([O-])CCC[C@H]1[C@H]3O (stereo partly drawn) [tylophoridicine C],> 3000
6,COc1ccc2c3c(c4cc(OC)c(OC)cc4c2c1)C[N+]1([O-])CCC[C@H]1[C@@H]3O (stereo partly drawn) [tylophoridicine F],> 3000
7,COc1ccc2c3c(c4cc(OC)c(O)cc4c2c1)CN1CCC[C@H]1[C@H]3O [tylophorinidine],65
8,COc1ccc2c3c(c4cc(OC)c(OC)cc4c2c1)CN1CCC[C@H]1[C@@H]3O [tylophorinine],110
